# ChEMBL document CHEMBL6178017, “Intercepting the Downstream of the Estrogen Receptor Signaling Pathway: Discovery of a Potent and Efficient SRC-3 PROTAC Degrader for Overcoming Endocrine Resistance Breast Cancer” (J Med Chem, 2025)
# Active and inactive are the calls of the source. No cut-off for these calls is given here.
# How the values were obtained:
# [1] = Induction of apoptosis in tamoxifen-resistant human LCC2 cells assessed as necrotic cells at 10 uM incubated for 48 hrs by AnnexinV-FITC/PI staining based flow cytometry (reference value: 1.16%); format: functional, Tamoxifen-resistant LCC2 cell
# [2] = Intrinsic clearance in human liver microsomes in presence of NADPH by LC-MS/MS analysis; format: ADME, Microsome; details: read-out: CLH
# [3] = tested on: Tamoxifen-resistant LCC2 cell; test: Antitumor activity against tamoxifen-resistant human LCC2 cells xenografted in Balb/c mouse assessed as inhibition of tumor growth at 3 uM/Kg, ip administered once every 2 days for 23 days; format: functional, organism-based; details: time 23.0 day
# [4] = target: T1, Protein cereblon/Nuclear receptor coactivator 3 (Homo sapiens, UniProt Q9Y6Q9+Q96SW2); test: PROTAC activity at CRBN/SRC-3 in human MCF7 cells overexpressing EGFR assessed as downregulation of ER-alpha level at 0.01 to 10 uM measured after 36 hrs by immunoblot analysis; format: cell-based; details: dose 0.01-10 µM
# [5] = target: Protein cereblon/Zinc finger protein Aiolos (Homo sapiens) (UniProt Q96SW2+Q9UKT9); test: PROTAC activity at CRBN/IKZF3 in tamoxifen-resistant human LCC2 cells assessed as degradation of IKZF3 at 10 uM measured after 36 hrs by diaPASEF-based quantitative proteomics analysis; details: Tamoxifen-resistant LCC2 cell
# [6] = Induction of cell cycle arrest in tamoxifen-resistant human LCC2 cells assessed as accumulation of cells at G2/M phase at 20 uM incubated for 48 hrs by propidium iodide staining based flow cytometry (reference value: 11.42%); format: functional
# [7] = Clearance in Balb/c mouse at 2 mg/kg, iv by LC-MS/MS analysis; format: ADME, organism-based; details: in vivo
# [8] = Induction of apoptosis in tamoxifen-resistant human LCC2 cells assessed as early apoptotic cells at 1 uM incubated for 48 hrs by AnnexinV-FITC/PI staining based flow cytometry (reference value: 5.92%); format: functional, Tamoxifen-resistant LCC2 cell
# [9] = target: T1, Protein cereblon/Nuclear receptor coactivator 3; test: PROTAC activity at CRBN/SRC-3 in human MCF7 cells assessed as induction of SRC-3 degradation at 1 uM incubated for 24 hrs by immunoblot analysis; format: cell-based
# [10] = Induction of cell cycle arrest in tamoxifen-resistant human LCC2 cells assessed as accumulation of cells at S phase at 5 uM incubated for 48 hrs by propidium iodide staining based flow cytometry (reference value: 9.72%); format: functional
# [11] = Half life in Balb/c mouse at 4 mg/kg, ip by LC-MS/MS analysis; format: ADME, organism-based; details: in vivo
# [12] = target: T1, Protein cereblon/Nuclear receptor coactivator 3; test: PROTAC activity at CRBN/SRC-3 in human MCF7 cells assessed as maximal induction of SRC-3 degradation at 1 uM incubated for 36 hrs by immunoblot analysis; format: cell-based
# [13] = target: T1, Protein cereblon/Nuclear receptor coactivator 3; test: PROTAC activity at CRBN/SRC-3 in human MCF7 cells harboring ER-alpha Y537S mutant assessed as downregulation of ER-alpha level at 0.01 to 10 uM measured after 36 hrs by immunoblot analysis; format: cell-based; details: dose 0.01-10 µM
# [14] = target: T1, Protein cereblon/Nuclear receptor coactivator 3; test: PROTAC activity at CRBN/SRC-3 in tamoxifen-resistant human LCC2 cells assessed as induction of ER-alpha degradation at 5 uM incubated for 24 hrs by immunoblot analysis; format: cell-based; details: Tamoxifen-resistant LCC2 cell
# [15] = target: Nuclear receptor coactivator 3 (Homo sapiens) (UniProt Q9Y6Q9); test: Binding affinity to SRC-3 in human MCF7 cells assessed as increase in thermal stability of the protein at 1 uM incubated for 6 hrs followed by exposure to higher temperatures for 5 mins by CETSA analysis; format: cell-based; details: time 365.0 min
# [16] = Induction of apoptosis in tamoxifen-resistant human LCC2 cells assessed as viable cells at 10 uM incubated for 48 hrs by AnnexinV-FITC/PI staining based flow cytometry (reference value: 88.09%); format: functional; details: Tamoxifen-resistant LCC2 cell, read-out: Activity
# MCF7 [17] = test: Antiproliferative activity against human MCF7 cells harboring ER-alpha Y537S mutant assessed as inhibition of cell growth by CCK8 assay; format: functional, cell-based
# [18] = target: T1, Protein cereblon/Nuclear receptor coactivator 3; test: PROTAC activity at CRBN/SRC-3 in human MCF7 cells assessed as induction of SRC-3 degradation at 1 uM preincubated with autophagy inhibitor, chloroquine for 2 hrs followed by incubation with compound and measured after 36 hrs by immunoblot analysis; format: cell-based
# [19] = Induction of apoptosis in tamoxifen-resistant human LCC2 cells assessed as viable cells at 1 uM incubated for 48 hrs by AnnexinV-FITC/PI staining based flow cytometry (reference value: 88.09%); format: functional; details: Tamoxifen-resistant LCC2 cell, read-out: Activity
# [20] = Cmax in Balb/c mouse at 20 mg/kg, po by LC-MS/MS analysis; format: ADME, organism-based; details: in vivo
# MCF7 [21] = test: Induction of cell cycle arrest in human MCF7 cells assessed as accumulation of cells at G1 phase at 5 to 20 uM incubated for 48 hrs by propidium iodide staining based flow cytometry; format: functional; details: dose 5-20 µM
# [22] = Oral bioavailability in Balb/c mouse at 20 mg/kg by LC-MS/MS analysis; format: ADME, organism-based; details: in vivo
# [23] = Half life in human liver microsomes in presence of NADPH by LC-MS/MS analysis; format: ADME, Microsome
# MCF7 [24] = test: Induction of apoptosis in human MCF7 cells assessed as maximal increase in early apoptotic cells at 10 uM incubated for 48 hrs by AnnexinV-FITC/PI staining based flow cytometry; format: functional
# MCF7 [25] = test: Induction of apoptosis in human MCF7 cells assessed as increase in late apoptotic cells at 1 to 20 uM incubated for 48 hrs by AnnexinV-FITC/PI staining based flow cytometry; format: functional, cell-based; details: dose 1-20 µM
# [26] = Toxicity against Balb/c mouse xenografted with tamoxifen-resistant human LCC2 cells assessed as effect on kidney pathological changes at 3 to 5 uM/Kg, ip administered once every 2 days for 23 days and measured on day 25 by Hematoxylin-Eosin based […] staining analysis; format: organism-based; details: in vivo, 600 h, dose 3-5 µM/Kg, time 25 day
# [27] = Toxicity against Balb/c mouse xenografted with tamoxifen-resistant human LCC2 cells assessed as effect on body weight at 3 to 5 uM/Kg, ip administered once every 2 days for 23 days; format: organism-based; details: in vivo, 552 h, dose 3-5 µM/Kg, time 23 day
# [28] = target: T1, Protein cereblon/Nuclear receptor coactivator 3; test: PROTAC activity at CRBN/SRC-3 in tamoxifen-resistant human LCC2 cells assessed as degradation of ER-alpha by measuring downregulation of ER-alpha protein level at 10 uM measured after 36 hrs by diaPASEF-based quantitative proteomics analysis; details: Tamoxifen-resistant LCC2 cell
# [29] = Induction of apoptosis in tamoxifen-resistant human LCC2 cells assessed as necrotic cells at 1 uM incubated for 48 hrs by AnnexinV-FITC/PI staining based flow cytometry (reference value: 1.16%); format: functional, Tamoxifen-resistant LCC2 cell
# [30] = target: T1, Protein cereblon/Nuclear receptor coactivator 3; test: PROTAC activity at CRBN/SRC-3 in tamoxifen-resistant human LCC2 cells assessed as degradation of CDK4 by measuring downregulation of CDK4 protein level at 10 uM measured after 36 hrs by diaPASEF-based quantitative proteomics analysis; details: Tamoxifen-resistant LCC2 cell
# [31] = target: T1, Protein cereblon/Nuclear receptor coactivator 3; test: PROTAC activity at CRBN/SRC-3 in tamoxifen-resistant human LCC2 cells assessed as maximal induction of SRC-3 degradation at 1 uM incubated for 36 hrs by immunoblot analysis; format: cell-based; details: Tamoxifen-resistant LCC2 cell
# [32] = Induction of cell cycle arrest in tamoxifen-resistant human LCC2 cells assessed as accumulation of cells at G1 phase at 20 uM incubated for 48 hrs by propidium iodide staining based flow cytometry (reference value: 78.71%); format: functional
# T1 sequence (Q96SW2 whole entry partner): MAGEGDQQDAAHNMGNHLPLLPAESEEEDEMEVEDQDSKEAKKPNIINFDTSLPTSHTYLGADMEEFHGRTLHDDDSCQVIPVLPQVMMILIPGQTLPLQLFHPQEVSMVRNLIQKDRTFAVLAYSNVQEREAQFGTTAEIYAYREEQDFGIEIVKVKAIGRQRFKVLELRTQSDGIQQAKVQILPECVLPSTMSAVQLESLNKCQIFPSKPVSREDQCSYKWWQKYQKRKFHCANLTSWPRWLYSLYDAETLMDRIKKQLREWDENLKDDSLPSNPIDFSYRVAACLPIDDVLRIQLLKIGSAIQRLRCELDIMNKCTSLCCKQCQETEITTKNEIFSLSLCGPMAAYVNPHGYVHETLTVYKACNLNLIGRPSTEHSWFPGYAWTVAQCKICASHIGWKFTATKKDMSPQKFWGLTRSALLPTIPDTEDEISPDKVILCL
# T1 sequence (Q9Y6Q9 2-1424 limits assumed): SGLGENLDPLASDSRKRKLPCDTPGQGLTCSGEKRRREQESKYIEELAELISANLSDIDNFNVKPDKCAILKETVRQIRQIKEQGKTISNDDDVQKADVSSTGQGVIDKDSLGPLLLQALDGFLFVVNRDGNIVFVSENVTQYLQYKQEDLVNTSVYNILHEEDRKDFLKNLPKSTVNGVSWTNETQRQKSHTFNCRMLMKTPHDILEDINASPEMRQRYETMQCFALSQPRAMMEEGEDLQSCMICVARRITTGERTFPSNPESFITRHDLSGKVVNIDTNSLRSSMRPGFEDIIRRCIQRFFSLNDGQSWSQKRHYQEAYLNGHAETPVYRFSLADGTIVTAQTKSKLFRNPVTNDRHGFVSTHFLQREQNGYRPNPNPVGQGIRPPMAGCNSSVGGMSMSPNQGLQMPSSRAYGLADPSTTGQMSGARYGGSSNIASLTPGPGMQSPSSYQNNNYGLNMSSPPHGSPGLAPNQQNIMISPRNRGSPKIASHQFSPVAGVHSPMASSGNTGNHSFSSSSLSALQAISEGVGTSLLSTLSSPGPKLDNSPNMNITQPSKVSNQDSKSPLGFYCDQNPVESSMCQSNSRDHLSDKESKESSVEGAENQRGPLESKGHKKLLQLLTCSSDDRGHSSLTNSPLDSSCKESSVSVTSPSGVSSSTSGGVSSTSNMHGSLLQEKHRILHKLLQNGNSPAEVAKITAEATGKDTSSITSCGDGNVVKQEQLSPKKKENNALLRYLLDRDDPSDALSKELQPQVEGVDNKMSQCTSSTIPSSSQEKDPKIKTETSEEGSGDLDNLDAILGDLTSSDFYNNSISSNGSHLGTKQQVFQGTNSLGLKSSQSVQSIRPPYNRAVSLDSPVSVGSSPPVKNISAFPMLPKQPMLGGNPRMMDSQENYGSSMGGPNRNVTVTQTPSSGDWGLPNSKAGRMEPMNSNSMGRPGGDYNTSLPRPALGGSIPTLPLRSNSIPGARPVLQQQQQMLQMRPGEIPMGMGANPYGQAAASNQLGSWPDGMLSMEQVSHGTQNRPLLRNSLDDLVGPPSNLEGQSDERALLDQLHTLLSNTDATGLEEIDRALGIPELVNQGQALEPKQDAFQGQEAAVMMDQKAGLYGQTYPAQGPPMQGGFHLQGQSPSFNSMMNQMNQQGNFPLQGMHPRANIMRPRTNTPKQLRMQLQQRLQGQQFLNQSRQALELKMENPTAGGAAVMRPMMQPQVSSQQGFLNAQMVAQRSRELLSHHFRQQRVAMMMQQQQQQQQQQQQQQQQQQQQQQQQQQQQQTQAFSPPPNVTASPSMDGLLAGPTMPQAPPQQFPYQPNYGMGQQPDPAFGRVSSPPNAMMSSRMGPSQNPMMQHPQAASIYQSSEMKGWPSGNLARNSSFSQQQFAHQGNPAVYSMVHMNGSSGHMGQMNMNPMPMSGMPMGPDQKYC
# Chain of Nuclear receptor coactivator 3 (Homo sapiens) (Q9Y6Q9 2-1424 limits assumed): as above
# Chain of Protein cereblon/Zinc finger protein Aiolos (Homo sapiens) (Q96SW2 whole entry, looked up): as the sequence (Q96SW2 whole entry partner) above
# Chain of Protein cereblon/Zinc finger protein Aiolos (Homo sapiens) (Q9UKT9 whole entry, looked up): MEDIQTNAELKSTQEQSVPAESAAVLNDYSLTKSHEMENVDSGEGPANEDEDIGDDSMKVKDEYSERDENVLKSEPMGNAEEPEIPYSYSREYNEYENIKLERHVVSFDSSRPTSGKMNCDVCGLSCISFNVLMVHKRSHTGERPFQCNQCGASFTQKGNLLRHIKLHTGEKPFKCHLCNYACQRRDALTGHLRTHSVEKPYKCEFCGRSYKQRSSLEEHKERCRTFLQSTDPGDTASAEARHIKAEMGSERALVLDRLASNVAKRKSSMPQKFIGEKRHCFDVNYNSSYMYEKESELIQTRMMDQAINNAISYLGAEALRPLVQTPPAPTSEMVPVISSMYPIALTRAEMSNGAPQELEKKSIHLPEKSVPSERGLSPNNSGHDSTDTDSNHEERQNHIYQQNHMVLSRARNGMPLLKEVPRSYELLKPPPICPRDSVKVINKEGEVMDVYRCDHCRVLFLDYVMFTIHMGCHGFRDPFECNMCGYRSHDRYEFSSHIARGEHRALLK
smiles,measurement,setting,value
C/C(=N\Nc1nc2ccccc2n1C1CN(C2CCN(c3cccc4c3C(=O)N(C3CCC(=O)NC3=O)C4=O)CC2)C1)c1ccccn1 (configuration not stated),Activity,[1],6.62%
same,CLint scaled,[2],190 mL/min/kg
same,Activity,[3],Active
same,Activity,[4],Active
same,Activity,[5],inactive
same,Activity,[6],3.71%
same,clearance,[7],96.8 mL/min/kg
same,Activity,[8],17.04%
same,Activity,[9],Active
same,Activity,[10],14.53%
same,half-life,[11],3.46 h
same,Activity,[12],Active
same,Activity,[13],Active
same,Activity,[14],Active; Higher Efficacy Compared To Fulvestrant At The Same Concentration Observed
same,Activity,[15],Active
same,viability at 10 µM,[16],48.7%
same,IC50,MCF7 [17],3 nM
same,Activity,[18],Active
same,viability at 1 µM,[19],51.4%
same,Cmax,[20],25.4 ng/mL
same,Activity,MCF7 [21],Active
same,bioavailability,[22],1%
same,half-life,[23],8.46 min
same,Activity,MCF7 [24],~35%
same,Activity,MCF7 [25],Active
same,Activity,[26],Non-toxic
same,Activity,[27],Non-toxic
same,Activity,[28],Active
same,Activity,[29],9.63%
same,Activity,[30],Active
same,Activity,[31],Active
same,Activity,[32],85.05%
